Measurements as given in the NIST ThermoML archive (doi:10.1016/j.jct.2011.08.016).

Experiment: xn = mol fraction of the nth substance listed
Conditions: Liquid, Vibrating tube method

CCCCCCCCCC [decane] + CCCCCCCC
Conditions	mass density [kg/m3]
323.15 K, 13000 kPa, x2 = 0.7736	698.56
323.15 K, 13000 kPa, x2 = 0.9623	692.26
323.15 K, 14000 kPa, x2 = 0.5314	706.56
323.15 K, 14000 kPa, x2 = 0.7736	699.43
323.15 K, 14000 kPa, x2 = 0.9623	693.16
323.15 K, 15000 kPa, x2 = 0.5314	707.39
323.15 K, 15000 kPa, x2 = 0.7736	700.3
323.15 K, 15000 kPa, x2 = 0.9623	694.06
323.15 K, 16000 kPa, x2 = 0.5314	708.22
323.15 K, 16000 kPa, x2 = 0.7736	701.16
323.15 K, 16000 kPa, x2 = 0.9623	694.94
323.15 K, 17000 kPa, x2 = 0.5314	709.02
323.15 K, 17000 kPa, x2 = 0.7736	702
323.15 K, 17000 kPa, x2 = 0.9623	695.8
323.15 K, 18000 kPa, x2 = 0.5314	709.85
323.15 K, 18000 kPa, x2 = 0.7736	702.81
323.15 K, 18000 kPa, x2 = 0.9623	696.65
323.15 K, 19000 kPa, x2 = 0.5314	710.62
323.15 K, 19000 kPa, x2 = 0.7736	703.6
323.15 K, 19000 kPa, x2 = 0.9623	697.48
323.15 K, 20000 kPa, x2 = 0.5314	711.38
323.15 K, 20000 kPa, x2 = 0.7736	704.4
323.15 K, 20000 kPa, x2 = 0.9623	698.3
323.15 K, 21000 kPa, x2 = 0.5314	712.12
323.15 K, 21000 kPa, x2 = 0.7736	705.18
323.15 K, 21000 kPa, x2 = 0.9623	699.1
323.15 K, 22000 kPa, x2 = 0.5314	712.85
323.15 K, 22000 kPa, x2 = 0.7736	705.95
323.15 K, 22000 kPa, x2 = 0.9623	699.83
323.15 K, 23000 kPa, x2 = 0.5314	713.54
323.15 K, 23000 kPa, x2 = 0.7736	706.68
323.15 K, 23000 kPa, x2 = 0.9623	700.57
323.15 K, 24000 kPa, x2 = 0.5314	714.24
323.15 K, 24000 kPa, x2 = 0.7736	707.39
323.15 K, 24000 kPa, x2 = 0.9623	701.31
323.15 K, 25000 kPa, x2 = 0.5314	714.88
323.15 K, 25000 kPa, x2 = 0.7736	708.08
323.15 K, 25000 kPa, x2 = 0.9623	702
323.19 K, 1000 kPa, x2 = 0.0616	706.61
323.19 K, 2000 kPa, x2 = 0.0616	707.46
323.19 K, 3000 kPa, x2 = 0.0616	708.43
323.19 K, 4000 kPa, x2 = 0.0616	709.27
323.19 K, 5000 kPa, x2 = 0.0616	710.19
323.19 K, 6000 kPa, x2 = 0.0616	711.06
323.19 K, 7000 kPa, x2 = 0.0616	711.94
323.19 K, 8000 kPa, x2 = 0.0616	712.81
323.19 K, 9000 kPa, x2 = 0.0616	713.68
323.19 K, 10000 kPa, x2 = 0.0616	714.53
323.19 K, 10990 kPa, x2 = 0.0616	715.36
323.19 K, 12000 kPa, x2 = 0.0616	716.18
323.19 K, 13000 kPa, x2 = 0.0616	716.99
323.19 K, 14000 kPa, x2 = 0.0616	717.79
323.19 K, 15000 kPa, x2 = 0.0616	718.57
323.19 K, 16000 kPa, x2 = 0.0616	719.34
323.19 K, 17000 kPa, x2 = 0.0616	720.12
323.19 K, 18000 kPa, x2 = 0.0616	720.9
323.19 K, 19000 kPa, x2 = 0.0616	721.64
323.19 K, 20000 kPa, x2 = 0.0616	722.37
323.19 K, 21000 kPa, x2 = 0.0616	723.09
323.19 K, 22000 kPa, x2 = 0.0616	723.78
323.19 K, 23000 kPa, x2 = 0.0616	724.44
323.19 K, 24000 kPa, x2 = 0.0616	725.08
323.19 K, 25000 kPa, x2 = 0.0616	725.73
333.12 K, 1000 kPa, x2 = 0.0616	698.91
333.12 K, 1000 kPa, x2 = 0.2801	693.73
333.12 K, 2000 kPa, x2 = 0.0616	699.91
333.12 K, 2000 kPa, x2 = 0.2801	694.68
333.12 K, 3000 kPa, x2 = 0.0616	700.87
333.12 K, 3000 kPa, x2 = 0.2801	695.65
333.12 K, 4000 kPa, x2 = 0.0616	701.83
333.12 K, 4000 kPa, x2 = 0.2801	696.63
333.12 K, 5000 kPa, x2 = 0.0616	702.77
333.12 K, 5000 kPa, x2 = 0.2801	697.61
333.12 K, 6000 kPa, x2 = 0.0616	703.69
333.12 K, 6000 kPa, x2 = 0.2801	698.55
333.12 K, 7000 kPa, x2 = 0.0616	704.67
333.12 K, 7000 kPa, x2 = 0.2801	699.5
333.12 K, 8000 kPa, x2 = 0.0616	705.56
333.12 K, 8000 kPa, x2 = 0.2801	700.43
333.12 K, 9000 kPa, x2 = 0.0616	706.45
333.12 K, 9000 kPa, x2 = 0.2801	701.36
333.12 K, 10000 kPa, x2 = 0.0616	707.38
333.12 K, 10000 kPa, x2 = 0.2801	702.27
333.12 K, 10990 kPa, x2 = 0.0616	708.26
333.12 K, 10990 kPa, x2 = 0.2801	703.19
333.12 K, 12000 kPa, x2 = 0.0616	709.09
333.12 K, 12000 kPa, x2 = 0.2801	704.1
333.12 K, 13000 kPa, x2 = 0.0616	709.96
333.12 K, 13000 kPa, x2 = 0.2801	704.98
333.12 K, 14000 kPa, x2 = 0.0616	710.8
333.12 K, 14000 kPa, x2 = 0.2801	705.81
333.12 K, 15000 kPa, x2 = 0.0616	711.63
333.12 K, 15000 kPa, x2 = 0.2801	706.72
333.12 K, 16000 kPa, x2 = 0.0616	712.43
